Experimental data published in article PMC7660650, “Chemical Starting Matter for HNF4α Ligand Discovery and Chemogenomics” (International Journal of Molecular Sciences, 2020).
Where “and” joins values, the source holds several entries; their conditions need not be identical. Equal entries are not always repeated.

molecular target: T1, Gal4-HNF4α (human HNF4α LBD) (Homo sapiens, UniProt P41235); assay: Hybrid Gal4-HNF4α reporter gene assay in transiently transfected HEK293T cells; format: cell-based; details: not given
T1 construct: uniprot entry: P41235-1, residues 142-377; expressed in transfected cells; host or cells: HEK293T
T1 sequence (P41235 142-377): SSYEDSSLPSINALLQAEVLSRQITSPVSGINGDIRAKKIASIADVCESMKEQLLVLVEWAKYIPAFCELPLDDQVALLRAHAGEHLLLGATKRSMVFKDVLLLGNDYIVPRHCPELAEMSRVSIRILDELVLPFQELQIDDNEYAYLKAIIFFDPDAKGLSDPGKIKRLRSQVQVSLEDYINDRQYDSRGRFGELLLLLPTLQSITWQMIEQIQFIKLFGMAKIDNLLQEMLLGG

Row | Structure (SMILES) | HNF4a-screening_activity_(mean_of_n=2)
1 | Nc1cc2ccccc2oc1=O [Prestw-Frag-1001, Nc1cc2ccccc2oc1=O] | 0.9336 and 1.001

same assay, conditions: Table S1, primary screening, 50 µM

Row | Structure (SMILES) | HNF4a-screening_activity_(mean_of_n=2)
2 | CN1C2CCC1CC(O)C2 (stereo not shown) [Prestw-Frag-0608, CN1C2CCC1CC(O)C2] | 1.089 and 1.102
3 | CC(C)(C)NCC(O)COc1ccccc1C1CCCC1 (stereo not shown) [Prestw-Frag-0674, CC(C)(C)NCC(O)COc1ccccc1C1CCCC1] | 1.434
4 | O=c1ccc2ccccc2o1 [Prestw-Frag-1000, O=c1ccc2ccccc2o1] | 1.227
5 | Cc1cc(-c2ccccc2)nnc1N [Prestw-Frag-1003, Cc1cc(nnc1N)-c1ccccc1] | 1.014 and 1.217
6 | NC(=O)NS(=O)(=O)c1ccccc1 [Prestw-Frag-1006, NC(=O)NS(=O)(=O)c1ccccc1] | 1.153 and 1.01
7 | CC(=O)Nc1nncs1 [Prestw-Frag-1008, CC(=O)Nc1nncs1] | 1.066 and 0.8521
8 | Nc1nncs1 [Prestw-Frag-1009, Nc1nncs1] | 1.011
9 | COC(=O)C(c1ccccc1)c1ccccc1 [Prestw-Frag-1013, COC(=O)C(c1ccccc1)c1ccccc1] | 1.409 and 1.217
10 | c1ccc2c3c([nH]c2c1)CNCC3 [Prestw-Frag-1014, C1Cc2c(CN1)[nH]c1ccccc21] | 0.999 and 1.943
11 | C[N+](C)(CCO)Cc1ccccc1 [Prestw-Frag-1017, C[N+](C)(CCO)Cc1ccccc1] | 0.8969 and 1.169
12 | NC(=O)Cc1cccs1 [Prestw-Frag-1019, NC(=O)Cc1cccs1] | 1.073 and 1.154
13 | Cc1cc(=O)n(-c2ccccc2)[nH]1 [Prestw-Frag-1028, Cc1cc(=O)n([nH]1)-c1ccccc1] | 1.027
14 | NCCCCc1ccccc1 [Prestw-Frag-1031, NCCCCc1ccccc1] | 1.332
15 | Cn1nnnc1S [Prestw-Frag-1032, Cn1nnnc1S] | 1.09
16 | COc1ccc(Cc2ccc(OC)cc2)cc1 [Prestw-Frag-1033, COc1ccc(Cc2ccc(OC)cc2)cc1] | 1.259 and 1.114
17 | NCc1c(N)ccc(Cl)c1Cl [Prestw-Frag-1039, NCc1c(N)ccc(Cl)c1Cl] | 1.196 and 1.044
18 | O=C(O)c1ccccc1O [Prestw-Frag-1045, OC(=O)c1ccccc1O] | 1.058
19 | CCC(=O)Nc1ncnc2[nH]cnc12 [Prestw-Frag-1047, CCC(=O)Nc1ncnc2[nH]cnc12] | 0.8266 and 1.023
20 | Nc1nc2ccccc2n1Cc1ccc(F)cc1 [Prestw-Frag-1050, Nc1nc2ccccc2n1Cc1ccc(F)cc1] | 0.6752 and 1.069
21 | COc1ccc(CCN2CCC(N)CC2)cc1 [Prestw-Frag-1051, COc1ccc(CCN2CCC(N)CC2)cc1] | 1.433
22 | CC(C)(Oc1ccccc1)C(=O)O [Prestw-Frag-1053, CC(C)(Oc1ccccc1)C(O)=O] | 0.9983 and 1.387
23 | Nc1ccc[nH]c1=O [Prestw-Frag-1060, Nc1ccc[nH]c1=O] | 1.316 and 1.113
24 | COc1cc2c(cc1O)CCN[C@H]2C [Prestw-Frag-1063, COc1cc2[C@H](C)NCCc2cc1O] | 1.128

Row | Structure (SMILES) | HNF4a-screening_activity_(mean_of_n=2)
25 | COc1ccc(CCN)cc1O [Prestw-Frag-1064, COc1ccc(CCN)cc1O] | 1.012
26 | O=[N+]([O-])c1ccc(CO)cc1 [Prestw-Frag-1071, OCc1ccc(cc1)[N+]([O-])=O] | 1.036 and 1.173
27 | CCC1=C(C)CN(C(=O)NCCc2ccccc2)C1=O [Prestw-Frag-1075, CCC1=C(C)CN(C(=O)NCCc2ccccc2)C1=O] | 1.214
28 | NCCc1ccc(S(N)(=O)=O)cc1 [Prestw-Frag-1076, NCCc1ccc(cc1)S(N)(=O)=O] | 1.134 and 1.077
29 | CC(=O)c1cc(Cl)ccc1O [Prestw-Frag-1083, CC(=O)c1cc(Cl)ccc1O] | 1.17
30 | CCN(CC)CCNC(=O)c1ccccc1O [Prestw-Frag-1086, CCN(CC)CCNC(=O)c1ccccc1O] | 1.563 and 0.9485
31 | O=c1[nH]c2ccccc2o1 [Prestw-Frag-1087, O=c1[nH]c2ccccc2o1] | 1.002 and 1.32
32 | CC(=O)c1ccc(N2CCNCC2)c(F)c1 [Prestw-Frag-1094, CC(=O)c1ccc(N2CCNCC2)c(F)c1] | 1.1 and 1.293
33 | Cc1ncsc1CCO [Prestw-Frag-1098, Cc1ncsc1CCO] | 1.111
34 | NC(=O)[C@H](N)c1ccccc1 [Prestw-Frag-1099, N[C@@H](C(N)=O)c1ccccc1] | 1.079
35 | Clc1ccc2c(c1)Nc1ccccc1CC2 [Prestw-Frag-1101, Clc1ccc2CCc3ccccc3Nc2c1] | 2.203
36 | OC(c1ccccc1)c1ccc(Cl)cc1 (stereo not shown) [Prestw-Frag-1106, OC(c1ccccc1)c1ccc(Cl)cc1] | 0.8543
37 | c1ccc(N2CCNCC2)nc1 [Prestw-Frag-1110, C1CN(CCN1)c1ccccn1] | 1.308
38 | COC(=O)c1scc(C)c1N [Prestw-Frag-1111, COC(=O)c1scc(C)c1N] | 1.183
39 | CCN(Cc1ccccc1)c1ccccc1 [Prestw-Frag-1121, CCN(Cc1ccccc1)c1ccccc1] | 1.173
40 | OC(c1ccccc1)c1ccccc1 [Prestw-Frag-1122, OC(c1ccccc1)c1ccccc1] | 1.034
41 | NCC(CC(=O)O)c1ccccc1 (stereo not shown) [Prestw-Frag-1125, NCC(CC(O)=O)c1ccccc1] | 0.6886
42 | O=C(O)CCc1ccc(Cl)cc1 [Prestw-Frag-1126, OC(=O)CCc1ccc(Cl)cc1] | 0.7294
43 | Cc1oncc1C(N)=O [Prestw-Frag-1128, Cc1oncc1C(N)=O] | 0.9735 and 0.9722
44 | Cc1c(O)c2ccccc2oc1=O [Prestw-Frag-1130, Cc1c(O)c2ccccc2oc1=O] | 0.9979
45 | O=c1cc(O)c2ccccc2o1 [Prestw-Frag-1131, Oc1cc(=O)oc2ccccc12] | 1.185
46 | COc1ccc2ccncc2c1 [Prestw-Frag-1133, COc1ccc2ccncc2c1] | 1.332
47 | Cn1c(=O)[nH]c2nc[nH]c2c1=O [Prestw-Frag-1138, Cn1c(=O)[nH]c2nc[nH]c2c1=O] | 0.9492

Row | Structure (SMILES) | HNF4a-screening_activity_(mean_of_n=2)
48 | CNC(C)(C)Cc1ccccc1 [Prestw-Frag-1141, CNC(C)(C)Cc1ccccc1] | 1.206
49 | COc1cc(N)ncn1 [Prestw-Frag-1154, COc1cc(N)ncn1] | 1.214
50 | Oc1cccc2c1CCCC2 [Prestw-Frag-1156, Oc1cccc2CCCCc12] | 0.9426
51 | Cc1nnc(N)s1 [Prestw-Frag-1161, Cc1nnc(N)s1] | 1.123
52 | C(=C\c1ccccc1)/CN1CCNCC1 [Prestw-Frag-1163, C(\C=C\c1ccccc1)N1CCNCC1] | 1.316
53 | c1ccc2[nH]c(CN3CCCC3)nc2c1 [Prestw-Frag-1164, C(N1CCCC1)c1nc2ccccc2[nH]1] | 0.7439 and 0.7907
54 | Clc1ccc(Cn2cnc3ccccc32)cc1 [Prestw-Frag-1165, Clc1ccc(Cn2cnc3ccccc23)cc1] | 0.6294 and 0.7204
55 | COc1ccc(N)nn1 [Prestw-Frag-1167, COc1ccc(N)nn1] | 1.35
56 | OC(Cn1ccnc1)c1ccc(Cl)cc1Cl (stereo not shown) [Prestw-Frag-1182, OC(Cn1ccnc1)c1ccc(Cl)cc1Cl] | 1.1
57 | COc1cc2ccncc2cc1OC [Prestw-Frag-1183, COc1cc2ccncc2cc1OC] | 1.218
58 | Nc1ccc(Cl)nn1 [Prestw-Frag-1184, Nc1ccc(Cl)nn1] | 0.9468
59 | CN1CCC[C@H]1c1cccnc1 [Prestw-Frag-1187, CN1CCC[C@H]1c1cccnc1] | 1.172
60 | Cc1c(N)cccc1C(F)(F)F [Prestw-Frag-1189, Cc1c(N)cccc1C(F)(F)F] | 1.319
61 | O=C(O)c1cccnc1Nc1ccccc1 [Prestw-Frag-1191, OC(=O)c1cccnc1Nc1ccccc1] | 1.24
62 | c1ccc(C(CCN2CCCCC2)c2ccccc2)cc1 [Prestw-Frag-1193, C(CN1CCCCC1)C(c1ccccc1)c1ccccc1] | 0.8943 and 1.009
63 | CC(Oc1ccccc1)C(N)=O (stereo not shown) [Prestw-Frag-1200, CC(Oc1ccccc1)C(N)=O] | 0.9571 and 0.9481
64 | CN1CCN(c2nccc(N)n2)CC1 [Prestw-Frag-1204, CN1CCN(CC1)c1nccc(N)n1] | 1.248
65 | CS(=O)(=O)c1ccc(N)cc1 [Prestw-Frag-1214, CS(=O)(=O)c1ccc(N)cc1] | 1.202
66 | CCCCOc1cc(C(=O)NC)c2ccccc2n1 [Prestw-Frag-1228, CCCCOc1cc(C(=O)NC)c2ccccc2n1] | 0.8368 and 0.967
67 | COc1cccc2c1CCCC2=O [Prestw-Frag-1236, COc1cccc2C(=O)CCCc12] | 1.287
68 | Oc1ccc(-c2ccc(F)cc2F)cc1 [Prestw-Frag-1237, Oc1ccc(cc1)-c1ccc(F)cc1F] | 0.9944
69 | O=C(O)c1cccc(-c2ccc(F)cc2F)c1 [Prestw-Frag-1238, OC(=O)c1cccc(c1)-c1ccc(F)cc1F] | 1.01
70 | O=C(O)c1cc(-c2ccc(F)cc2)ccc1O [Prestw-Frag-1239, OC(=O)c1cc(ccc1O)-c1ccc(F)cc1] | 1.018 and 1.049
